Patent US10973835B2, “Boron-containing small molecules for inhibiting activity of a receptor-like protein tyrosine phosphatase” (The Penn State Research Foundation, priority 2017, dated 2021)
Entries after “also recorded” stand apart in the source; their conditions may differ. Like-named read-outs stand apart in the source and are kept apart here. One block for each molecule: values may come before it.

Legend:
[1] = biological target: LAR-oxidized (Leukocyte common antigen-related, LAR) (Homo sapiens, UniProt P10586); assay: RPTP assay, standard assay conditions: phosphatase activity of oxidized LAR (DiFMUP substrate, TCEP reduction); assay type: biochemical
LAR-oxidized (Leukocyte common antigen-related, LAR), sequence (P10586 30-1907): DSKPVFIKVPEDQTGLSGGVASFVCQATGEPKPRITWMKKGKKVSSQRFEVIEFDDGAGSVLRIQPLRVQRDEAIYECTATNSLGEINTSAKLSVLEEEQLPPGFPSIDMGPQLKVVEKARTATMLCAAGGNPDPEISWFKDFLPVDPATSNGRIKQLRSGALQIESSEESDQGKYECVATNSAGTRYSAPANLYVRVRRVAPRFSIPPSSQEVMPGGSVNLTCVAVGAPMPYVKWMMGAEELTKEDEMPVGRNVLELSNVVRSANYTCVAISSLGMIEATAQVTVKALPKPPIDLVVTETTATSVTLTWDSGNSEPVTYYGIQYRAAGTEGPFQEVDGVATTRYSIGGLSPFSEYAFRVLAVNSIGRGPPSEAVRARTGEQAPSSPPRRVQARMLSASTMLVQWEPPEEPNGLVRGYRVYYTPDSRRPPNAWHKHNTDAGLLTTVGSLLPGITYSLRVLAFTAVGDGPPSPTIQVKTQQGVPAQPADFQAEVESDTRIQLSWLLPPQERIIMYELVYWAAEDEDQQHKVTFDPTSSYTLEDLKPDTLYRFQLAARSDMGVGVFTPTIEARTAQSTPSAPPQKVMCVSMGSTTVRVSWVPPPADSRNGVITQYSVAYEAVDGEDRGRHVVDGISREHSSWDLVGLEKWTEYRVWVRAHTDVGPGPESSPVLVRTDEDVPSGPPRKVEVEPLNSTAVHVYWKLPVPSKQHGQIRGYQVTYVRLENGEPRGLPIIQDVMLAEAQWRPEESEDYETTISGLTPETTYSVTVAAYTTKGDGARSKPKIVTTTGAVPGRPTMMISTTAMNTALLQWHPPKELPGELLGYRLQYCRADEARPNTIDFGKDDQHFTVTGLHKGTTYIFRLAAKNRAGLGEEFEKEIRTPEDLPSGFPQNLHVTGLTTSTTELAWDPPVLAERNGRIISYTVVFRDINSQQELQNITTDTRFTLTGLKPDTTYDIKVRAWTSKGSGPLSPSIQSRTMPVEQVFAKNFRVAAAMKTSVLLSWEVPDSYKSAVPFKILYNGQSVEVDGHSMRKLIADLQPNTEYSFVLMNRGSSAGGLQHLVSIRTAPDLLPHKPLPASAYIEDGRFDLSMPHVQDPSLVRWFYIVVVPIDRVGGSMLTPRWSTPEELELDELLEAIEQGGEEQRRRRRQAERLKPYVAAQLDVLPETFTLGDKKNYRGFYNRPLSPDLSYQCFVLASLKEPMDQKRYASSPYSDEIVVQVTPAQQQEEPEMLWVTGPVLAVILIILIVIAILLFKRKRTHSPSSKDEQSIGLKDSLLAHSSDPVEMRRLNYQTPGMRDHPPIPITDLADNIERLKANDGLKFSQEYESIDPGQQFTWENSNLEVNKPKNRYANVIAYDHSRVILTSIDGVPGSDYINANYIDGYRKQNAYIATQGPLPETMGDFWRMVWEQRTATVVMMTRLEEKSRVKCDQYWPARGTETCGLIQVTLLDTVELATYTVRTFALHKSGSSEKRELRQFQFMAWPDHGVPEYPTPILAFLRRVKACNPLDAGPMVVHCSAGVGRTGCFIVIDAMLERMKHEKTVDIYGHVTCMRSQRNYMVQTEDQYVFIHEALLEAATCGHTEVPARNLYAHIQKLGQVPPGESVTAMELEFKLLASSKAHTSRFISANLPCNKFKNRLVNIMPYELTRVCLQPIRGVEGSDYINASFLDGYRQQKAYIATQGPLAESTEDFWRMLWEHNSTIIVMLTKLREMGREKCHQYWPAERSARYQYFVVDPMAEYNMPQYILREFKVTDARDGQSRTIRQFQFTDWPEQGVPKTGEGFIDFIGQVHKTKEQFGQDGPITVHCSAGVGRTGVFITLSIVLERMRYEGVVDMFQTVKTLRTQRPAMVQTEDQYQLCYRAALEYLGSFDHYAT
Method: (§1) Leukocyte common antigen-related (LAR) and PTPσ were used as illustrative type IIa RPTPs. Illustratively, purified LAR (100 nM) was mixed with H2O2 (2 mM) in phosphatase assay buffer (50 mM HEPES, pH 7.0, 100 mM NaCl, 0.1% BSA) at room temperature for 10 minutes. Excess H2O2 was removed with a Zeba™ Desalting Column (Thermo Scientific) equilibrated in the assay buffer without any reducing agent. Phosphatase activity was measured for each protein sample using 6,8-difluoro-4-methylumbiliferyl phosphate (DiFMUP) as the substrate, with or without 5 mM Tris(2-carboxyethyl)phosphine hydrochloride (TCEP). Activity of the oxidized sample was compared to that of the untreated (unoxidized) sample in the presence of 5 mM TCEP.
(§2) LAR-OX (10 nM) was incubated with compounds (0.1 mM) for varying lengths of time and the phosphatase activity was monitored using DiFMUP as substrate following reduction of the PTP with TCEP (5 mM). TCEP was not removed before adding DiFMUP. DiFMUP was added right after TCEP and the activity was followed continuously for 60 minutes. […] The above protocol was used to test the activity of other phosphatases (PTP1B, PTPσ, SHP2, PTPα, PTEN, and JSP1).

[2] = test system: C2C12 cells; assay: Cell vitality under the MuSK phosphorylation experimental condition; assay type: cell-based, mouse; conditions: C2C12, experimental condition of FIG. 3
[3] = test system: MuSK phosphorylation (LAR dephosphorylating MuSK) in C2C12 myotubes; assay: MuSK tyrosine phosphorylation in agrin-stimulated C2C12 myotubes (anti-pTyr immunoprecipitation, anti-MuSK blot); assay type: cell-based, mouse
Method: C2C12 cells serum starved (8 hours) and then treated with CL-37 for 1 hour. Following which, cells were stimulated with Agrin (10 nM) for varying lengths of time (0-60 minutes). The cells were lysed and lysates were used to immunoprecipitate tyrosine phosphorylated proteins using 4G10® (05-321 from EMD Milliooire Corp. and PY20 (such as ab10321 fromabcam Plc) antibodies for 90 minutes at 4 C. The immunocomplexes were washed and resolved on SDS gels and immunoblotted using anti-MUSK antibody. For the immunoprecipitation experiments, 1 mg of total cell lysate was incubated with anti-pTyr antibodies at 4° C. for 90 minutes. The interacting protein complexes were immunoprecipitated after incubating the lysate-antibody mixture with protein A/G Sepharose® at 4° C. for 30 minutes. After immunoprecipitation, Sepharose® beads were washed three times at 4° C. with wash buffer (PBS, pH 7.4, 0.05% BSA, 0.05% Tween®-20 and protease inhibitors). Complexes were separated by SDS-PAGE and immunoblotted using anti-MUSK antibody.

[4] = biological target: PTPσ-oxidized (Homo sapiens, UniProt Q13332); assay: RPTP assay, standard assay conditions: phosphatase activity of oxidized PTPσ; assay type: biochemical
PTPσ-oxidized, sequence (Q13332 30-1948): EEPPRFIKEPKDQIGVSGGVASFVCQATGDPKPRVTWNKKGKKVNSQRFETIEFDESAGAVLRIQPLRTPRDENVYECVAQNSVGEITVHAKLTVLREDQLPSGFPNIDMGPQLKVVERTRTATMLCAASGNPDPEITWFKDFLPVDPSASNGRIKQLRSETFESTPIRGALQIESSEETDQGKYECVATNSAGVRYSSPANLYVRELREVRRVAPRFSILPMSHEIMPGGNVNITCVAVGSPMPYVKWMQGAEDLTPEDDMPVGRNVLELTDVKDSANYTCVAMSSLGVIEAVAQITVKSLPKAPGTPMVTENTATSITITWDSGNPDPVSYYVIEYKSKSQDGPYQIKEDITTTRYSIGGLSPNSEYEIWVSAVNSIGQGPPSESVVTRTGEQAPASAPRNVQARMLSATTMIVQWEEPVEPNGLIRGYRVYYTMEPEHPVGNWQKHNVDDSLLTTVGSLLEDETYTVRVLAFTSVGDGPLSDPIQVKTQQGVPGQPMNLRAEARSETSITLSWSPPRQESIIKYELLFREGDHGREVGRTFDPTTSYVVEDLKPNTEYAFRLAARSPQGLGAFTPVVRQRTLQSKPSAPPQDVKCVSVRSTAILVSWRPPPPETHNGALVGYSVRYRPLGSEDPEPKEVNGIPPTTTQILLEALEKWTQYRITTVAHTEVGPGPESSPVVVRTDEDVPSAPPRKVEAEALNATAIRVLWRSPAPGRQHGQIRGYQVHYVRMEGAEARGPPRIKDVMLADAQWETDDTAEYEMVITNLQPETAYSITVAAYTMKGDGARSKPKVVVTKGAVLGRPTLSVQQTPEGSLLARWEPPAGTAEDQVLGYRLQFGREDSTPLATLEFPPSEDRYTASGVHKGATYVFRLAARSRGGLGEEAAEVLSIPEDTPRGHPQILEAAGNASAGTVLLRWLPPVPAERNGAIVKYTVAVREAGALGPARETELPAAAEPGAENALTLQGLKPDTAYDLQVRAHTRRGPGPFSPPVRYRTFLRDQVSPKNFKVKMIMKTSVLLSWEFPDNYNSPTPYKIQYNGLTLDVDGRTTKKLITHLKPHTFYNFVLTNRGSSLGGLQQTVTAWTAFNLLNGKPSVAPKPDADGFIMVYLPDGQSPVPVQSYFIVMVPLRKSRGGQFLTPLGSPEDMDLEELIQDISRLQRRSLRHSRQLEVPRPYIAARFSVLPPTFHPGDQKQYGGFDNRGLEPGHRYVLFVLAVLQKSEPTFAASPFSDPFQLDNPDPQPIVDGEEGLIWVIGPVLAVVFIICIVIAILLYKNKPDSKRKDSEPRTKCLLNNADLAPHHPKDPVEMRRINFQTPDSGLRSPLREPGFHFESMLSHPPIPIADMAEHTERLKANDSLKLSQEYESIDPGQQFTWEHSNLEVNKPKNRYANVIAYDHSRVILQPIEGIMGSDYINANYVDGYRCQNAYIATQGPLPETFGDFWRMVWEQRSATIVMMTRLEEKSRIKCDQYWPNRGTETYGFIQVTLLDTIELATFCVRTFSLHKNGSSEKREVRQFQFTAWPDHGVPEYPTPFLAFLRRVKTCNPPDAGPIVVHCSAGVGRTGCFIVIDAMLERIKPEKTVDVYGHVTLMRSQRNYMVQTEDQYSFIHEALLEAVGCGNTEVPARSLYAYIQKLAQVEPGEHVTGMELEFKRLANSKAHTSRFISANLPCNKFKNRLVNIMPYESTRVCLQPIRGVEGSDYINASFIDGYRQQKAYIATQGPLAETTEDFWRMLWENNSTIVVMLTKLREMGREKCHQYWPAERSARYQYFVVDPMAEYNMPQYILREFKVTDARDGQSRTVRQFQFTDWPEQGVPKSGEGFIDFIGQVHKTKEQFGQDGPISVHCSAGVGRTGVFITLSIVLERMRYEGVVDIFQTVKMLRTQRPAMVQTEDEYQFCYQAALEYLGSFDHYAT
Method: as §1, §2

[5] = Stability of difluoroborate compounds using 19F and 11B NMR; conditions: acetonitrile-d3 alone and 80% acetonitrile-d3/20% D2O; up to seven days; room temperature
[6] = FIG. 1, oxidized form, 0.1 to 100 μM compound
[7] = Table 1, Formula II, potassium salt, R1 and R2 para to boron, read-out: LAR-ox Ki
[8] = FIG. 4, assay similar to FIG. 3, agrin stimulation
[9] = Table 3, Formula IV, read-out: LAR-ox Ki
[10] = Table 2, Formula III, R1 and R2 para to boron, read-out: LAR-ox Ki

SMILES: F[B-](F)(c1ccccc1)c1ccccc1 [CL-37]
phosphatase activity of LAR (inhibition) [1, 6]: most actively inhibited
Ki [1, 7]: 5 µM
effect on cell vitality [2]: did not exhibit an adverse effect on cell vitality
phosphorylation level of MuSK versus control ([3]; FIG. 3, CL-37 5 μM, 1 hour pretreatment, agrin 10 nM, 0-60 minutes): significantly higher than the control; also recorded: inhibits LAR from dephosphorylating MuSK
phosphorylation level of MuSK versus control [3, 8]: higher phosphorylation; also recorded: enhance the phosphorylation level of MUSK
phosphatase activity of PTP-sigma (inhibition) [4, 6]: most actively inhibited
Ki ([4]; read-out: PTPσ-oxidized Ki): 4 µM

Ki [1, 7]: 4 µM
SMILES: F[B-](F)(c1ccc(Cl)cc1)c1ccc(Cl)cc1 [CL-61]

hydrolysis or degradation by 19F and 11B NMR [5]: no hydrolysis or degradation
SMILES: F[B-](F)(c1ccc(Cl)cc1)c1ccc(-c2ccccc2)cc1 [CL-83]

Ki ([1]; read-out: LAR-oxidized Ki): > 1000 µM
Ki ([4]; read-out: PTPσ-oxidized Ki): > 1000 µM
SMILES: OB1OCc2cc(F)ccc21 [Compound B-7]

Ki [1, 9]: > 1000 µM
Ki ([1]; read-out: LAR-oxidized Ki): > 1000 µM
SMILES: O=C(Nc1ccc2c(c1)B(O)OCC2)c1ccc(F)cc1 [Compound S-6]

Ki ([1]; read-out: LAR-oxidized Ki): > 1000 µM
Ki ([4]; read-out: PTPσ-oxidized Ki): > 1000 µM
SMILES: Nc1ccc2c(c1)COB2O [Compound B-2]

Ki ([1]; read-out: LAR-oxidized Ki): > 1000 µM
Ki [4]: > 1000 µM
SMILES: OB1OCc2ccccc21 [Compound B-1]

Ki [1, 9]: > 1000 µM
Ki ([1]; read-out: LAR-oxidized Ki): > 1000 µM
Ki ([4]; read-out: PTPσ-oxidized Ki): > 1000 µM
SMILES: OB1OCCc2cc(F)ccc21 [Compound B-5]

Ki ([1]; read-out: LAR-oxidized Ki): > 1000 µM
SMILES: C=CB(O)c1ccccc1 [CL-49]

Ki ([1]; read-out: LAR-oxidized Ki): > 1000 µM
SMILES: F[B-](F)(F)c1ccc(-c2ccccc2)cc1 [CL-70]

Ki [1, 10]: 20 µM
SMILES: OB(c1ccccc1)c1ccccc1 [CL-30]

Ki [1, 9]: 500 µM
SMILES: OB1OCCc2ccccc21 [Compound S-4]

Ki [1, 7]: > 1000 µM
Ki ([1]; read-out: LAR-oxidized Ki): > 1000 µM
SMILES: COc1ccc([B-](F)(F)c2ccc(OC)cc2)cc1 [CL-60]

SMILES: Fc1ccc([B-](F)(F)c2ccc(-c3ccccc3)cc2)cc1 [CL-76]
Ki [1, 7]: 1 µM
Ki ([1]; read-out: LAR-oxidized Ki): 1 µM
phosphorylation level of MuSK versus control [3, 8]: higher phosphorylation; also recorded: enhance the phosphorylation level of MUSK

Ki [1, 9]: 57 µM
Ki ([4]; read-out: PTPσ-oxidized Ki): 100 µM
SMILES: Nc1ccc2c(c1)B(O)OCC2 [Compound B-14]

Ki [1, 10]: 1 µM
SMILES: OB(c1ccc(F)cc1)c1ccc(-c2ccccc2)cc1 [CL-73-2]
phosphorylation level of MuSK versus control [3, 8]: higher phosphorylation; also recorded: enhance the phosphorylation level of MUSK

Ki [1, 7]: 4 µM
SMILES: Fc1ccc([B-](F)(F)c2ccc(F)cc2)cc1 [CL-65]
